Test system: HIF-2α HIS TAG-PASB Domain
Experiment: HIF-2α Scintillation Proximity Assay (SPA)
Type: binding
Settings: compounds listed by structure and IUPAC name
Method: The percent inhibition was determined and IC50 values were calculated using the Dotmatics system based on the following equation: % inhibition=[(high control sample)/(high control low control)]×100.

| SMILES | IC50 |
| --- | --- |
| CN(C)Cc1c(S(=O)(=O)C(F)F)ccc(Oc2cc(F)cc(Cl)c2)c1Cl [1-[2-chloro-3-(3-chloro-5-fluoro-phenoxy)-6-(difluoromethylsulfonyl)phenyl]-N,N-dimethyl-methanamine] | > 100 µM |
| CNC(=O)/C=C/c1c(S(=O)(=O)C(F)(F)F)ccc(Oc2cc(F)cc(C#N)c2)c1C [(E)-3-[3-(3-cyano-5-fluoro-phenoxy)-2-methyl-6-(trifluoromethylsulfonyl)phenyl]-N-methyl-prop-2-enamide] | > 100 µM |
| CNc1c(S(=O)(=O)C(F)(F)F)ccc(Oc2cc(F)cc(Cl)c2)c1C#N [6-(3-chloro-5-fluoro-phenoxy)-2-(methylamino)-3-(trifluoromethylsulfonyl)benzonitrile] | > 100 µM |
| O=C(O)c1cc(S(=O)(=O)C(F)(F)F)ccc1Oc1cc(F)cc(Cl)c1 [2-(3-chloro-5-fluorophenoxy)-5-((trifluoromethyl)sulfonyl)benzoic acid] | > 100 µM |
| Cc1c(Oc2cc(F)cc(C#N)c2)ccc(S(=O)(=O)C(F)(F)F)c1C(O)CO (stereo not drawn) [3-[3-(1,2-dihydroxyethyl)-2-methyl-4-(trifluoromethylsulfonyl)phenoxy]-5-fluoro-benzonitrile] | > 100 µM |
| OC1CCc2c(Oc3cc(F)cc(Cl)c3)cccc21 (stereo not drawn) [4-(3-chloro-5-fluoro-phenoxy)indan-1-ol] | > 100 µM |
| CSc1ccc(Oc2cc(F)cc(C#N)c2)c2c1C(=O)CC2 [3-fluoro-5-(7-methylsulfanyl-1-oxo-indan-4-yl)oxy-benzonitrile] | > 100 µM |
| N#Cc1cc(F)cc(Oc2ccc(/S(CF)=N/C(=O)C(F)(F)F)c3c2CC[C@H]3O)c1 (stereo partly drawn) [N-((R)-7-(3-cyano-5-fluorophenoxy)-3-hydroxy-2,3-dihydro-1H-inden-4-yl)(fluoromethyl)-λ^4-sulfanylidene)-2,2,2-trifluoroacetamide] | > 100 µM |
| CC(=O)NC1c2c(S(C)(=O)=O)ccc(Oc3cc(F)cc(F)c3)c2CC1(F)F (stereo not drawn) [N-[4-(3,5-difluorophenoxy)-2,2-difluoro-7-methylsulfonyl-indan-1-yl]acetamide] | > 100 µM |
| O=C1CCc2c(Oc3cc(F)cc(Cl)c3)cccc21 [4-(3-chloro-5-fluoro-phenoxy)indan-1-one] | > 100 µM |
| N#Cc1cccc(Oc2ccc(C(F)(F)F)c(Cl)c2N)c1 [3-[2-amino-3-chloro-4-(trifluoromethyl)phenoxy]benzonitrile] | > 100 µM |
| N#Cc1cc(F)cc(Oc2ccc(S(=O)(=O)C(F)(F)F)c3c2C[C@@H](F)[C@@H]3N)c1 [3-[(1R,2R)-1-amino-2-fluoro-7-(trifluoromethylsulfonyl)indan-4-yl]oxy-5-fluoro-benzonitrile] | > 100 µM |
| O=[N+]([O-])c1c(F)cccc1Oc1cccc(Cl)c1 [1-(3-chlorophenoxy)-3-fluoro-2-nitro-benzene] | > 100 µM |
| Cc1c(Oc2cc(F)cc(C#N)c2)ccc(S(=O)(=O)C(F)(F)F)c1/C=C/C(=O)OCc1ccccc1 [benzyl (E)-3-[3-(3-cyano-5-fluoro-phenoxy)-2-methyl-6-(trifluoromethylsulfonyl)phenyl]prop-2-enoate] | > 100 µM |
| O=C(O)c1cc(F)cc(Oc2ccc(S(=O)(=O)C(F)(F)F)cc2Br)c1 [3-[2-bromo-4-(trifluoromethylsulfonyl)phenoxy]-5-fluoro-benzoic acid] | > 100 µM |
| CS(=O)(=O)c1cccc(Oc2ccc(S(=O)(=O)C(F)(F)F)c3c2CC(F)(F)[C@H]3O)c1 [(1S)-2,2-difluoro-4-(3-methylsulfonylphenoxy)-7-(trifluoromethylsulfonyl)indan-1-ol] | > 100 µM |
| Cc1c(Oc2cc(F)cc(C#N)c2)ccc(S(=O)(=O)C(F)(F)F)c1/C=C/C(N)=O [(E)-3-[3-(3-cyano-5-fluoro-phenoxy)-2-methyl-6-(trifluoromethylsulfonyl)phenyl]prop-2-enamide] | > 100 µM |
| Cc1cc(Oc2cc(F)cc(C#N)c2)c2c(c1S(C)(=O)=O)C(O)CC2 (stereo not drawn) [3-fluoro-5-(1-hydroxy-6-methyl-7-methylsulfonyl-indan-4-yl)oxy-benzonitrile] | > 100 µM |
| CC1Cc2c(Oc3cc(F)cc(C#N)c3)ccc(S(C)(=O)=O)c2C1=O (stereo not drawn) [3-fluoro-5-((2-methyl-7-(methylsulfonyl)-1-oxo-2,3-dihydro-1H-inden-4-yl)oxy)benzonitrile] | > 100 µM |
| O=S(=O)(c1ccc(Oc2cc(F)cc(Cl)c2)c(CC(O)CO)c1)C(F)(F)F (stereo not drawn) [3-[2-(3-chloro-5-fluoro-phenoxy)-5-(trifluoromethylsulfonyl)phenyl]propane-1,2-diol] | > 100 µM |
| O=S(=O)(c1ccc(Oc2cc(F)cc(F)c2)c2c1C(O)CC2)N1CCOCC1 (stereo not drawn) [4-(3,5-difluorophenoxy)-7-morpholinosulfonyl-indan-1-ol] | > 100 µM |

Continued, values first:

| IC50 | SMILES |
| --- | --- |
| > 100 µM | CS(=O)(=O)c1ccc(Oc2cc(C#N)cc(Oc3ccc(S(C)(=O)=O)c4c3CC(F)(F)[C@H]4O)c2)c2c1[C@H](O)C(F)(F)C2 [3,5-bis[[(1S)-2,2-difluoro-1-hydroxy-7-methylsulfonyl-indan-4-yl]oxy]benzonitrile] |
| > 100 µM | CS(=O)(=O)c1ccc(Oc2cc(F)cc(F)c2)c2c1C(NC(=O)c1ccc(F)cc1)C(F)(F)C2 (stereo not drawn) [N-[4-(3,5-difluorophenoxy)-2,2-difluoro-7-methylsulfonyl-indan-1-yl]-4-fluoro-benzamide] |
| > 100 µM | O=S(=O)(c1ccc(Oc2cccn3cnnc23)c2c1[C@H](O)CC2)C(F)(F)F [(1R)-4-([1,2,4]triazolo[4,3-a]pyridin-8-yloxy)-7-(trifluoromethylsulfonyl)indan-1-ol] |
| > 100 µM | N#Cc1cccc(Oc2cc(F)cc(Cl)c2)c1Br [2-bromo-3-(3-chloro-5-fluoro-phenoxy)benzonitrile] |
| > 100 µM | O=C(NCCO)c1c(S(=O)(=O)C(F)F)ccc(Oc2cc(F)cc(Cl)c2)c1C(F)F [3-(3-chloro-5-fluoro-phenoxy)-2-(difluoromethyl)-6-(difluoromethylsulfonyl)-N-(2-hydroxyethyl)benzamide] |
| > 100 µM | N#Cc1cc(F)cc(Oc2ccc(Cl)c3c2CCC3)c1 [3-(7-chloroindan-4-yl)oxy-5-fluoro-benzonitrile] |
| > 100 µM | Cc1c(Oc2cc(F)cc(C#N)c2)ccc(S(=O)(=O)C(F)(F)F)c1/C=C/C(=O)O [(E)-3-[3-(3-cyano-5-fluoro-phenoxy)-2-methyl-6-(trifluoromethylsulfonyl)phenyl]prop-2-enoic acid] |
| > 100 µM | NS(=O)(=O)c1cccc(Oc2cc(F)cc(Cl)c2)c1[N+](=O)[O-] [3-(3-chloro-5-fluoro-phenoxy)-2-nitro-benzenesulfonamide] |
| > 100 µM | O=S(=O)(c1ccc(Oc2cc(F)cc(Cl)c2)c(Cl)c1CNC1CCOC1)C(F)F (stereo not drawn) [N-[[2-chloro-3-(3-chloro-5-fluoro-phenoxy)-6-(difluoromethylsulfonyl)phenyl]methyl]tetra-hydrofuran-3-amine] |
| > 100 µM | C[C@H]1Cc2c(Oc3cc(F)cc(C#N)c3)ccc(S(C)(=O)=O)c2[C@H]1O [3-fluoro-5-(((1S,2S)-1-hydroxy-2-methyl-7-(methylsulfonyl)-2,3-dihydro-1H-inden-4-yl)oxy)benzonitrile] |
| > 100 µM | CS(=O)(=O)c1ccc(Oc2cc(F)cc(F)c2)c2c1C(C#N)CC2 (stereo not drawn) [4-(3,5-difluorophenoxy)-7-methylsulfonyl-indane-1-carbonitrile] |
| > 100 µM | CCCCOC(=O)/C=C/c1c(S(=O)(=O)C(F)(F)F)ccc(Oc2cc(F)cc(C#N)c2)c1C [butyl (E)-3-[3-(3-cyano-5-fluoro-phenoxy)-2-methyl-6-(trifluoromethylsulfonyl)phenyl]prop-2-enoate] |

— patent US10597366B2, “Aryl ethers and uses thereof” (Peloton Therapeutics, Inc., priority 2013, dated 2020)
